Measured values from PMC12426930, “Antioxidant, Hypotensive, and Antidiabetic Breakthroughs: Bromelain Hydrolysis Unlocks Quinoa’s Peptide Potential - In Silico and In Vitro Approach” (Journal of Agricultural and Food Chemistry, 2025).
Several values for one entry are separate records, joined by “and”; a condition that tells them apart may be missing. Equal entries are not always repeated. Entries after “also recorded” stand apart in the source; their conditions may differ. Marks after values point to notes of the source that are not given here. Each block holds one compound with its values, some of them ahead of it.

Tests used:
[1] = system: angiotensin I converting enzyme; test: ACE-I inhibitory activity (fluorometric kit CS0002); assay type: biochemical
Description: ACE-I inhibitory assay was determined by ACE-I activity assay kit (fluorometric, CS0002). This assay is based on the hydrolysis of angiotensin I by ACE to yield angiotensin II. Briefly, all reagents were diluted in the assay buffer, and a total of 50 μL of peptide sample, positive control (captopril PHR1307), and assay buffer (blank) were added to a 96-well black plate. The standard was added at 0, 0.1, 0.2, 0.3, 0.4, 0.5, 0.6, and 0.8 nmol and adjusted to a final volume of 100 μL. […] Finally, fluorescence (λex, 320 nm; λem, 405 nm) was measured in five cycles for 5 min. Linear regressions were determined to calculate the enzymatic activity for each sample per concentration. Thus, one unit was defined as the amount of enzyme that releases 1 nmol of fluorescent substrate in 1 min at 37 °C. Finally, the inhibition (%) of each peptide and positive control was determined using regression analysis of the corresponding dose–response curves.

ACE-I = conditions: pearl garlic peptides; ref Yudho-Sutopo et al. [121]; read-out: ACE-I inhibition IC50; cited from earlier work
Description: Yudho-Sutopo et al. reported the ACE-I inhibitory activity of four synthetic peptides from pearl garlic (DHSTAVW, KLAKVF, KLSTAASF, and KETPEAHVF). […] According to Yudho-Sutopo et al., the hydrophobic amino acid in the C-terminal and amino acids with a positively charged side-chain amino group, like in DHSTAVW, are determinants in the inhibition of ACE-I. Furthermore, a study by Zheng et al. reported an ACE-I inhibitory peptide – RGQVIYVL – from Chenopo ...

LOX = conditions: cited from earlier work; for anti-LOX activity (inhibition): 1 mg/mL, velvet antler blood peptides, ref Ding et al. [119]
Description: Ding et al. evaluated eight peptides from velvet antler blood (LFP, FPH, EHF, VGYP, FSAL, LSQKFPK, HHGGEFTPV, and LKECCDKPV) for anti-LOX activity. […] Karas et al. reported six LOX-inhibitory peptides from millet grain (RLARAGLAQ, YGNPVGGVGH, EQGFLPGP ...

[2] = system: porcine pancreatic α-amylase (PPA); test: α-Amylase inhibition; assay type: biochemical; conditions: CNPG3 substrate, 405 nm, 37 °C, mean ± SD, n = 9
Description: α-Amylase inhibition activity was performed using the 3,5-dinitrosalicylic acid (DNS) assay according to Zulfiqar et al. […] Then, 50 μL of substrate (2-chloro-4-nitro-[…] (CNPG3) (2 mM)) was added per well. Finally, absorbance was recorded at 405 nm (SPARK-10M, TECAN, Switzerland) at 37 °C for 10 min in 1-min intervals. The percentage of enzyme inhibition was calculated in relation to 100% enzymatic activity in the negative control (phosphate-buffered saline (PBS) buffer, enzyme, and substrate).

[3] = Oxygen radical absorbance capacity (ORAC) assay; conditions: AAPH, fluorescein, 37 °C, 150 min
Description: Oxygen radical absorbance capacity (ORAC) assay was performed following the method of Carvalho-Oliveira et al. Briefly, 30 μL of peptide (different concentrations 50–1000 μM) or standard (Trolox at 0–160 μM) were placed in a black 96-well plate. The reaction mixture comprised 180 μL of fluorescein (116.9 nM) and 90 μL of 2,2’-azobis(2-amidinopropane) dihydrochloride (AAPH) (40 mM). Finally, the fluorescence was recorded every 2 min for 150 min at excitation and emission wavelengths of 485 and 520 nm, respectively. All reactions were performed at 37 °C. The results were expressed as μmol Trolox equivalent (TE)/μmol of peptide. Quantification and interpretation of the data were done by Gen5 software, version 1.1 (BioTek Instruments, Winooski, VT, USA).

Fe^2+ chelation assay = conditions: 125 μM; ferrozine, pH 4.9, 37 °C, 10 min; mean ± SD, n = 9
Description: Fe^2+ chelation assay was measured according to Sanchez-Velazquez et al. with slightly modifications. 25 μL of sample (synthetic peptides, […]) or positive control (EDTA, 0.1 μg/μL) was added to 225 μL of buffer (sodium acetate, 100 mM, pH 4.9), then 15 μL of iron solution (0.1%, w/v) and 9 μL of ferrozine (40 mM) were added to start the reaction. For the blank well, 250 μL of buffer was added to the iron solution and ferrozine. The reaction was incubated 10 min at 37 °C and then read at 562 nm (SPARK-10M, TECAN, Switzerland). Fe^2+ chelating activity was calculated as described previously for copper.

human DPP-IV = test: DPP-IV inhibitory activity; assay type: biochemical; conditions: H-Gly-Pro-pNA, 37 °C, mean ± SD, n = 9
Description: Dipeptidyl peptidase-IV (DPP-IV) inhibitory activity was measured following the method by Vilcacundo et al., with slightly modifications. […] For the negative control 70 μL of Tris Buffer was added. Finally, 100 μL of substrate (H-Gly-Pro-pNA, 100 mM) was added to all wells. The reaction was performed at 37 °C in the microplate reader (BioTek Instruments, Winooski, VT, USA), and the reaction was read at 405 nm for 30 min, with reading intervals of 2 min. Finally, data were plotted and fitted to a logarithmic regression to obtain dose–response curves.

[4] = Trolox equivalent antioxidant capacity (TEAC, ABTS radical cation); conditions: 734 nm, 6 min, mean ± SD, n = 9
Description: The Trolox equivalent antioxidant capacity (TEAC) analysis was performed as described by Sanchez-Velazquez et al. In order to produce ABTS (2,2’-azino-bis(3-ethylbenzthiazoline-6-sulfonic acid) radical cation (ABTS^ ●+ ), ABTS (7 mM) were mixed with potassium persulfate (2.45 mM) in the dark at room temperature (RT 18–21 °C) for 16 h. […] Finally, the reaction was measured at 0 and 6 min at 734 nm (SPARK-10M, TECAN, Switzerland). The percentage of inhibition was calculated as follows: %TEACinhibition=Abs sample0min−Abs sample6min/Abs sample0min−(Abs blank0min−Abs blank6min/Abs blank0min)×100

[5] = system: rat intestinal acetone α-glucosidase; test: α-Glucosidase inhibition; assay type: biochemical; conditions: 2 mM maltose, pH 6.9, 37 °C, mean ± SD, n = 9
Description: α-Glucosidase inhibition assay was measured following the method of Vilcacundo et al., with slightly modifications. First, 100 μL of sample ([…]), positive control (1 mM acarbose), and/or negative control (Milli-Q-water), were added to 50 μL of rat intestinal acetone α-glucosidase (1 U/mL in 0.1 M, maleate buffer pH 6.9), and the mixture was incubated at 37 °C for 5 min. Then, 50 μL of substrate (2 mM maltose) was added into each tube, which was performed in a Thermomixer (37 °C, 1000 rpm, for 30 min). Finally, the reaction was stopped at 100 °C for 5 min. The glucose concentration in the reaction was measured using GOPOD (glucose oxidase/peroxidase) from Megazyme, with absorbance measured at 560 nm (Gen5 software, version 1.1, BioTek Instruments, Winooski, VT, USA). The percentage of inhibition was calculated relative to the non-inhibited control (negative control).

[6] = system: 15-LOX enzyme (soybean lipoxygenase); test: Lipoxygenase inhibitor screening assay (LOX); assay type: biochemical; conditions: 31.25 μM; linoleic acid 1 mM, RT, 490 nm
Description: Lipoxygenase inhibitory activity assay (LOX) was determined following the manufacturer’s instructions (#760700). Thus, peptide concentrations (31.25–125 μM) were prepared with the assay buffer and tested in triplicate. First, 10 μL of the peptides at each concentration was mixed with 90 μL of 15-LOX enzyme (soybean lipoxygenase) in a 96-well plate. Then, three wells each contained assay buffer as blank (without enzyme), assay buffer as vehicle (with enzyme), and 15-LOX as positive control. Afterward, 10 μL of linoleic acid (1 mM) (substrate) was added to all wells and shaken for 10 min at RT. Finally, 100 μL of chromogen was added to all wells, and the plate was sealed and shaken for an additional 5 min at RT. The final reaction was measured at 490 nm, and the percentage of inhibition was calculated as. %inhibition=[1−Correctedvaluesofpeptide/Correctedvaluesofvehicle]×100

[7] = 125 μM, fluorometric kit, 37 °C, mean ± SD, n = 9
[8] = 250 μM, fluorometric kit, 37 °C, mean ± SD, n = 9
[9] = 500 μM, fluorometric kit, 37 °C, mean ± SD, n = 9

ACE-I inhibition, reference inhibitor ([1]; 50 µM): 80.1%
Compound: C[C@H](CS)C(=O)N1CCC[C@H]1C(=O)O [commercial ACE-I inhibitor, reference compound]

Compound: DHSTAVW [synthetic peptide from pearl garlic, Yudho-Sutopo et al]
IC50 (ACE-I): 2.8 µM

Compound: GQLGEHGGAGMG
LOX inhibition (LOX; millet grain peptides, ref Karas et al. [120]): 50%

Compound: HHGGEFTPV [peptide from velvet antler blood, Ding et al]
anti-LOX activity (inhibition) (LOX): ≤ 12%

Compound: KETPEAHVF [synthetic peptide from pearl garlic, Yudho-Sutopo et al]
IC50 (ACE-I): 455 µM

Compound: KLAKVF [synthetic peptide from pearl garlic, Yudho-Sutopo et al]
IC50 (ACE-I): 77.2 µM

Compound: KLSTAASF [synthetic peptide from pearl garlic, Yudho-Sutopo et al]
IC50 (ACE-I): 172 µM

Compound: LKECCDKPV [peptide from velvet antler blood, Ding et al]
anti-LOX activity (inhibition) (LOX): ≤ 12%

Compound: LSQKFPK [peptide from velvet antler blood, Ding et al]
anti-LOX activity (inhibition) (LOX): ≤ 12%

ACE-I inhibition [1, 7]: 17.20 ± 0.28^d %
ACE-I inhibition [1, 8]: 31.7 ± 2.40^b %
ACE-I inhibition [1, 9]: 53.0 ± 1.41^a %
α-glucosidase inhibition ([5]; 300 μM): 7.72 ± 0.95^c %
inhibition ([5]; 400 μM): 10.4 ± 0.93%
α-glucosidase inhibition ([5]; 500 μM): 11.93 ± 0.92^b %
LOX inhibition [6]: 16.20%
Compound: NIYQIS [quinoa 11S globulin peptide, custom-synthesized by GenScript, purity 95%]
α-amylase inhibition ([2]; 300 μM): ND (no inhibitory effect was observed at the given concentration)
α-amylase inhibition ([2]; 400 μM): ND (no inhibitory effect was observed at the given concentration)
α-amylase inhibition ([2]; 500 μM): did not show significant α-amylase inhibition; also recorded: ND (no inhibitory effect was observed at the given concentration)
ORAC [3]: 0.75 μmol TE/μmol peptide
ORAC ([3]; mean ± SD, n = 9): 0.75 μM TE/μM Peptide and 0.75 ± 0.02^a μM TE/μM Peptide
Fe^2+ chelating activity (Fe^2+ chelation assay): 9.04 ± 0.96%
DPP-IV inhibition (human DPP-IV; 125 μM): ND (no inhibitory effect was observed at the given concentration)
DPP-IV inhibition (human DPP-IV; 250 μM): 12.22 ± 0.50^b %
DPP-IV inhibition (human DPP-IV; 500 μM): 16.36 ± 0.70^a %
TEAC inhibition (ABTS^●+ inhibition) ([4]; 125 μM): 7.87 ± 0.10%
TEAC inhibition (ABTS^●+ inhibition) ([4]; 250 μM): 7.39 ± 0.19%
TEAC inhibition (ABTS^●+ inhibition) ([4]; 500 μM): 8.19 ± 0.38%

Compound: VGYP [peptide from velvet antler blood, Ding et al]
anti-LOX activity (inhibition) (LOX): ≤ 12%

α-amylase inhibition ([2]; 300 μM): 12.20 ± 1.67^c %
α-amylase inhibition ([2]; 400 μM): 11.43 ± 2.04^c %
α-amylase inhibition ([2]; 500 μM): 6.66 ± 0.38^d %
inhibition [1, 7]: 21.1 ± 0.19%
ACE-I inhibition [1, 8]: 24.1 ± 0.18^c %
ACE-I inhibition [1, 9]: 24.3 ± 0.15^c %
α-glucosidase inhibition ([5]; 300 μM): 8.48 ± 0.94^c %
α-glucosidase inhibition ([5]; 400 μM): 8.33 ± 0.94^c %
α-glucosidase inhibition ([5]; 500 μM): 14.86 ± 0.89^a %
LOX inhibition [6]: 22.64%
Compound: YDDER [quinoa 11S globulin peptide, custom-synthesized by GenScript, purity 95%]
ORAC [3]: 0.24 μmol TE/μmol peptide
ORAC ([3]; mean ± SD, n = 9): 0.24 ± 0.01^b μM TE/μM Peptide
Fe^2+ chelating activity (Fe^2+ chelation assay): 8.8 ± 1.0%
DPP-IV inhibition (human DPP-IV; 125 μM): ND (no inhibitory effect was observed at the given concentration)
DPP-IV inhibition (human DPP-IV; 250 μM): ND (no inhibitory effect was observed at the given concentration)
DPP-IV inhibition (human DPP-IV; 500 μM): 3.44 ± 0.50^d %
TEAC inhibition (ABTS^●+ inhibition) ([4]; 250 μM): 7.45 ± 0.19%
TEAC inhibition (ABTS^●+ inhibition) ([4]; 500 μM): 8.7 ± 0.50%
